In patent US10864179B2, “Histone deacetylase inhibitors for the use in the treatment of drug resistant melanoma” (STICHTING HET NEDERLANDS KANKER INSTITUUT-ANTONI VAN …, priority 2015, dated 2020):
Entries after “also recorded” stand apart in the source; their conditions may differ.

Assays:
A375R cells = experiment: Long-term colony formation assay, vemurafenib-resistant A375R cells; conditions: for sensitivity of cells in proliferation assay, HDACi panel: Vorinostat 1 uM, 01994 4 uM, AR2 0.5 uM, Pracinostat 0.25 uM, Quisinostat 25 nM, 8 day
Procedure: Long-term colony formation assay of melanoma (A375 and A375R clone) cells. […] Cells were fixed and stained at day 12. […] Long-term colony formation assay of melanoma Mel888 parental and vemurafenib-resistant Mel888R cells (three different clones Mel888RC-A, B and C) were seeded at the same cell density in 6-well plates and cultured in presence of vorinostat (1 microM) and/or vemurafenib (2 microM). Cells were fixed and stained at day 10. […] Long-term colony formation assay of melanoma A375 parental and double-resistant cells seeded in 12-well plates and treated with 2 microM vemurafenib and/or 0.5 microM CDX101 (CDX). Medium and drugs were refreshed every 2-3 days. Cells were fixed and stained on day 10.
Medium and drugs were refreshed every 2-3 days. Cells were fixed and stained on day 10
Long-term colony formation assay of A375 parental and MAPKi resistant A375R, A375DR cells treated sulfasalazine and vorinostat. Medium and drugs were refreshed every 2-3 days. Cells were fixed and stained on day 10.
The A375 melanoma cell line was obtained from ATCC. MEL888 were gifts from D. Peeper (Amsterdam, The Netherlands). WM266-4 and Colo741 cell line were provided by R. Marais (Manchester, UK). These cells are BRAF mutated melanoma. All the cell lines were cultured in DMEM medium supplemented with 10% FBS, 1% penicillin/streptomycin and 2 mM I-glutamine. Vemurafenib-resistant A375 and MEL888 cells were generated by long term (at least 3 months) culturing with 2 microM vemurafenib. Dabrafenib-Trametinib combination resistant A375 cells were generated by long term (at least 3 months) culturing with 0.25 microM Dabrafenib and 10 nM Trametinib (MEK inhibitor). Vemurafenib-resistant ex-vivo clones were isolated from immunodeficient BalbC mice, which were long-term treated with PLX4720-chow (50 mg/kg). All the in vitro cell lines have been STR profiled.
Cells were seeded into 6-well plates (5*10^4˜1*10^5 cells per well) or 12-well plates (4*10^4 cells per well) and cultured both in the absence and presence of drugs as indicated.

A375DR cells = experiment: Long-term colony formation assay, dabrafenib/trametinib double-resistant A375DR cells; format: cell-based, human
Description: (§1) These cells are BRAF mutated melanoma.

[1] = system: MEL888RC-A, B and C cells; experiment: Long-term colony formation assay, vemurafenib-resistant MEL888 clones; format: cell-based; conditions: vorinostat 1 microM, CXD101 0.5 microM
Description: FIG. 5. […] Cells were fixed and stained on day 8.
as §1

A375 melanoma cells [2] = experiment: Long-term colony formation assay, A375 cells; format: cell-based, human; conditions: for effect of HDACi on the anti-proliferative effect of vemurafenib: HDACi together with vemurafenib; for proliferation in long-term colony formation assay: drug(s) without HDACi/BRAFi partner; for effect of HDACi on dabrafenib, trametinib and their combination: FIG. 3
Description: (§2) FIG. 1. BRAF inhibition is antagonized by HDAC inhibition in melanoma. A). […] The cells were fixed and stained at day 14. B). Short-term proliferation assay of melanoma (A375) cells. […] Error bars represent s.d. of biological triplicates. C,D). HDAC inhibitors and vemurafenib have antagonistic effects on MAPK pathway and HDAC inhibitors can rescue cells from vemurafenib-induced apoptosis. A375 were pre-treated with 1 microM vorinostat and 1 microM entinostat for 48 hrs and then treated with the combination of HDAC inhibitor (1 microM) and vemurafenib (1 microM) for additional 24 hrs. The levels of p-RB, p-MEK, MEK, cleaved PARP (cl. PARP) and ac-H3 were detected by western blot. β-actin served as the loading control.
(§3) FIG. 2. Other HDACi also confer resistance to vemurafenib. […] B).
(§4) FIG. 3. HDACi confers resistance to the combination of a MEK and a BRAF inhibitor in melanoma. A,B,C).

[3] = system: NRAS-mutant melanoma patients; conditions: phase II; cited from earlier work
SK-MEL-2R cells = experiment: Long-term colony formation assay, MEKi-resistant SK-MEL-2R cells; format: cell-based, human; conditions: 5 mM NAC
Procedure: (i). Long-term colony formation assay of SK-MEL-2 and MEKi-resistant SK-MEL-2R cells cultured in the presence of 1 μM vorinostat and/or 100 nM Trametinib.
(j) Long-term colony formation assay of SK-MEL-2 and SK-MEL-2R cells cultured in the presence of indicated concentrations of vorinostat and/or 5 mM NAC.
(§5) The A375, SK-Mel-147 and SK-Mel-2 melanoma cell lines were obtained from ATCC. […] Trametinib resistant SK-mel-147 and SK-mel-2 were generated by long term culturing with 25 nM (first month), 50 nM (second month) and 100 nM (third month) trametinib.
(§6) For full details, see ref. (Huang et al., 2009).

SK-MEL-147R cells = experiment: Long-term colony formation assay, MEKi-resistant SK-MEL-147R cells; format: cell-based, human
Procedure: (a). Long-term colony formation assay of SK-MEL-147 and MEKi-resistant SK-MEL-147R cells cultured in the presence of 1 μM vorinostat and/or 100 nM Trametinib.
(b). Long-term colony formation assay of SK-MEL-147 and SK-MEL-147R cells cultured in the presence of indicated concentrations of vorinostat and/or 5 mM NAC.
as §5, §6

[4] = system: A375 melanoma tumor xenografts; experiment: A375 mouse xenografts; format: in vivo, BalbC immunodeficient nude mice; conditions: for tumor volume of PLX4720-resistant tumors after randomization: PLX4720 300 mg/kg in chow and/or vorinostat 100 mg/kg i.p.
Procedure: FIG. 7. HDACi is effective in treatment of BRAF inhibitor resistant melanoma in vivo. A,B). […] A375 melanoma cells were grown as tumor xenografts in BalbC immunodeficient nude mice. After tumor establishment (150-200 mm3), mice were treated with (A). vehicle, PLX4720 (40 mg/kg supplemented in the chow). Upon development of BRAF inhibitor resistance, mice receiving PLX4720 were randomized in four arms (B) receiving: vehicle, PLX4720 (300 mg/kg supplemented in the chow), Vorinostat (100 mg/kg i.p.) or PLX4720 (300 mg/kg supplemented in the chow) plus Vorinostat (100 mg/kg i.p.). C). Resistance to vemurafenib in A375 cells is mediated through reactivation of MAP kinase pathway. Biochemical responses of A375-resistant ex vivo clones and A375 parental cell line treated with 2 microM vemurafenib were documented by western blot analysis. Cells were harvested at 24 hrs after drug treatment. […] HSP90 served as the loading control. […].
A375 melanoma cells (2×10^6 cells per mouse) were injected subcutaneously into the right posterior flanks of 7-week-old immunodeficient BalbC or NMRI nude female mice (6 mice per group; Janvier Laboratories, The Netherlands). Tumor formation was monitored twice a week, and tumor volume based on caliper measurements was calculated by the modified ellipsoidal formula (tumor volume=½(length×width2)). When tumors reached a volume of approximately 0.3 cm^3, mice were randomized into treatment arms. PLX4720 (Plexxikon) was formulated in the chow by Research Diets dosed at 300 mg/kg and vorinostat was formulated in DMSO/saline solution, and it was dosed at 100 mg per kg daily by intraperitoneal injection. When resistance to PLX4720 arises in the group treated with PLX4720, mice bearing tumors of approximately 0.3 cm^3 were again randomized into the treatment arms with the same drug dosages. Animal experiments were approved by the Animal Ethics Committee of the Netherlands Cancer Institute and performed in accordance with institutional, national and European guidelines for Animal Care and Use.
To investigate whether HDACi treatment is a suitable therapy for MPAK pathway inhibitor resistant melanoma, e.g. BRAF inhibitor resistant melanoma, we injected parental vemurafenib sensitive A375 cells into a cohort of 24 BalbC immunodeficient nude mice. After tumors had reached an average volume of 150-200 mm3, we started treatment with vemurafenib by feeding the animals chow supplemented with 40 mg/kg of PLX4720. […] After that period, tumors began to increase in size, indicative of the development of drug resistance (FIG. 7A). When drug resistant tumors in the mice had reached a size of 800 mm3, mice were randomized to four cohorts that were treated either with:
A) no drug; B) PLX4270; C) PLX4270 and vorinostat; D) Vorinostat.

[5] = system: 4397A, 4397B, 4393R and 4393L cells; experiment: Long-term colony formation assay, ex vivo PLX4720-resistant A375 clones; format: cell-based, human; conditions: four cell lines with in vivo acquired PLX4720 resistance
Description: FIG. 8. In vitro and ex vivo BRAF inhibitor-resistant clones are hypersensitive to HDACi.
We explanted four PLX4720 resistant tumors from mice immediately after acquisition of PLX4720 resistance in vivo and continued to culture these cells in vitro in the presence of BRAF inhibitor. These cells were designated 4397A, 4397B, 4393R and 4393L.

Colo741 melanoma cells = experiment: Long-term colony formation assay, Colo741 cells; format: cell-based; conditions: for effect of HDACi on dabrafenib, trametinib and their combination: FIG. 3
Description: as §3, §4

p-MEK in A375 cells = experiment: Western blot of MAPK pathway and apoptosis markers, A375 cells; format: cell-based, human; conditions: single drug
Description: as §2
FIG. 7. HDACi is effective in treatment of BRAF inhibitor resistant melanoma in vivo. A,B). […] A375 melanoma cells were grown as tumor xenografts in BalbC immunodeficient nude mice. After tumor establishment (150-200 mm3), mice were treated with (A). vehicle, PLX4720 (40 mg/kg supplemented in the chow). Upon development of BRAF inhibitor resistance, mice receiving PLX4720 were randomized in four arms (B) receiving: vehicle, PLX4720 (300 mg/kg supplemented in the chow), Vorinostat (100 mg/kg i.p.) or PLX4720 (300 mg/kg supplemented in the chow) plus Vorinostat (100 mg/kg i.p.). C). Resistance to vemurafenib in A375 cells is mediated through reactivation of MAP kinase pathway. […]

XCT (SLC7A11) mRNA = experiment: qRT-PCR of SLC7A11 in SK-MEL-147 and SK-MEL-147R cells; conditions: 72 hours vorinostat treatment
Procedure: The relative mRNA levels were detected by qRT-PCR analysis after 72 hours vorinostat treatment. Error bars represent s.d. of measurement replicates (n=3, *** p<0.001, Student's t-test).
RNA isolation from cell lines harvested with TRIzol reagent (Invitrogen) according to the manufacturer's instruction. cDNA synthesis was performed with Maxima Universal First Strand cDNA Synthesis Kit (# K1661, Thermo scientific) according to manufacturer's instruction.

[6] = system: p-MEK in WM2664 melanoma cells; experiment: Western blot of p-MEK, WM2664 cells; format: cell-based; conditions: single drug
Procedure: Cells were seeded in medium containing 10% fetal bovine serum (FBS) for indicated time, and then washed with PBS and lysed with RIPA buffer supplemented with protease inhibitor (cOmplete, Roche) and Phosphatase Inhibitor Cocktails II and III (Sigma). All lysates were freshly prepared and processed with Novex NuPAGE Gel Electrophoresis Systems (Invitrogen).

A375 melanoma cells [7] = experiment: Short-term proliferation assay (IncuCyte), A375 cells; format: cell-based, human; conditions: each drug alone, 1 microM
Description: as §2

A375 cells = experiment: Staining of beta-galactosidase activity; format: cell-based, human
Description: β-galactosidase activity in cells was detected using Histochemical Staining Kit (CS0030-1KT) from Sigma-Aldrich. The detection was applied according to the manufacturer's instructions.

Structure (SMILES): CC(C)[C@H](C(=O)Nc1ccc(C(=O)NO)cc1)c1ccccc1 [AR2]
- sensitivity of cells in proliferation assay, HDACi panel (A375R cells; A375R cells): very sensitive

Structure (SMILES): Cc1nn(C)cc1CN1CCC(c2ccc(C(=O)Nc3ccccc3N)cc2)CC1 [CXD101]
- sensitivity of cells in long-term colony formation assay (A375DR cells; 0.5 microM CDX101): very sensitive
- sensitivity of cells in long-term colony formation assay (A375DR cells; 0.5 microM CDX101, listed as CDX101): hypersensitive
- sensitivity of cells in long-term colony formation assay [1]: hypersensitive
- effect of HDACi on the anti-proliferative effect of vemurafenib (A375 melanoma cells [2]): conferred resistance to vemurafenib
- proliferation in long-term colony formation assay (A375 melanoma cells [2]): mildly anti-proliferative

Structure (SMILES): Cn1cnc2c(F)c(Nc3ccc(Br)cc3F)c(C(=O)NOCCO)cc21 [MEK162]
- patients with objective responses [3]: 20%
- patients with stable disease [3]: 43%

Structure (SMILES): CC(=O)N[C@@H](CS)C(=O)O [NAC, N-acetyl-L-cysteine]
- effect on the toxic effects of vorinostat (SK-MEL-2R cells): countered, at least in part
- effect on the toxic effect of vorinostat (SK-MEL-147R cells; SK-MEL-147R cells, 5 mM NAC): rescued

Structure (SMILES): CCCS(=O)(=O)Nc1ccc(F)c(C(=O)c2c[nH]c3ncc(Cl)cc23)c1F [PLX4720]
- tumor volume of PLX4720-resistant tumors after randomization [4]: continued tumor volume increase
- period of tumor growth suppression before resistance ([4]; chow supplemented with 40 mg/kg of PLX4720): around 3 months
- tumor growth ([4]; chow supplemented with 40 mg/kg of PLX4720, start at 150-200 mm3): significant suppression of tumor growth

Structure (SMILES): CCCCc1nc2cc(/C=C/C(=O)NO)ccc2n1CCN(CC)CC [Pracinostat]
- sensitivity of cells in proliferation assay, HDACi panel (A375R cells; A375R cells): very sensitive

Structure (SMILES): Cn1cc(CNCC2CCN(c3ncc(C(=O)NO)cn3)CC2)c2ccccc21 [Quisinostat]
- sensitivity of cells in proliferation assay, HDACi panel (A375R cells; A375R cells): very sensitive

Structure (SMILES): O=C(/C=C/c1cccc(S(=O)(=O)Nc2ccccc2)c1)NO [belinostat]
- sensitivity of cells to HDACi [5]: very sensitive
- effect of HDACi on the anti-proliferative effect of vemurafenib (A375 melanoma cells [2]): conferred resistance to vemurafenib
- proliferation in long-term colony formation assay (A375 melanoma cells [2]): mildly anti-proliferative

Structure (SMILES): CC(C)(C)c1nc(-c2cccc(NS(=O)(=O)c3c(F)cccc3F)c2F)c(-c2ccnc(N)n2)s1 [dabrafenib]
- proliferation in long-term colony formation assay (Colo741 melanoma cells; MAPK pathway inhibitor(s) without HDACi): effective in limiting proliferation
- proliferation in long-term colony formation assay (A375 melanoma cells [2]): effective in limiting proliferation

Structure (SMILES): Nc1ccccc1NC(=O)c1ccc(CNC(=O)OCc2cccnc2)cc1 [entinostat]
- sensitivity of cells in long-term colony formation assay [1]: hypersensitive
- p-MEK levels (p-MEK in A375 cells): increases p-MEK levels
- effect of HDACi on dabrafenib, trametinib and their combination (Colo741 melanoma cells): able to confer resistance to these drugs
- effect of HDACi on dabrafenib, trametinib and their combination (A375 melanoma cells [2]): able to confer resistance to these drugs

Structure (SMILES): O=C(O)c1cc(/N=N/c2ccc(S(=O)(=O)Nc3ccccn3)cc2)ccc1O [sulfasalazine]
- toxicity in long-term colony formation assay (A375DR cells; sulfasalazine 0.2 to 0.4 mM): toxic
- toxicity in long-term colony formation assay (A375R cells; A375R cells, sulfasalazine 0.2 to 0.4 mM): toxic

Structure (SMILES): O=C(CCCCCCC(=O)Nc1ccccc1)NO [vorinostat]
- XCT (SLC7A11) mRNA expression (XCT (SLC7A11) mRNA): reduced XCT (also known as SLC7A11) mRNA expression; also recorded: suppressed SLC7A11 expression
- sensitivity of cells in long-term colony formation assay (A375R cells; A375R cells versus parental A375, vorinostat 1 microM, vemurafenib 2 microM): far more sensitive to vorinostat than parental A375 cells; also recorded: massive inhibition of proliferation; also recorded: hypersensitive
- sensitivity of cells in proliferation assay, HDACi panel (A375R cells; A375R cells): very sensitive
- effect of HDACi on dabrafenib, trametinib and their combination (Colo741 melanoma cells): able to confer resistance to these drugs
- effect of HDACi on the anti-proliferative effect of vemurafenib (Colo741 melanoma cells; HDACi together with vemurafenib): conferred resistance to vemurafenib
- sensitivity of cells in long-term colony formation assay (SK-MEL-147R cells; SK-MEL-147R versus parental SK-MEL-147, 1 μM vorinostat, 100 nM Trametinib): acquired significant sensitivity
- p-MEK levels [6]: increase in phospho-MEK (p-MEK)
- tumor volume of PLX4720-resistant tumors after randomization [4]: rapid decline in tumor volume; also recorded: complete disappearance of the tumors after two months; also recorded: suppress melanoma growth
- cell proliferation (cell confluence, IncuCyte) (A375 melanoma cells [7]): restricted cell proliferation
- acidic beta-galactosidase (senescence marker) (A375 cells): induction of acidic beta-galactosidase
- sensitivity of cells to HDACi [5]: very sensitive
- effect of HDACi on dabrafenib, trametinib and their combination (A375 melanoma cells [2]): able to confer resistance to these drugs
- effect of HDACi on the anti-proliferative effect of vemurafenib (A375 melanoma cells [2]): almost completely negated the anti-proliferative effects of vemurafenib
- proliferation in long-term colony formation assay (A375 melanoma cells [2]): inhibition of proliferation
